According to patent publication EP0866075B1, “Method to treat microbial infections by uncoupling of phosphotransferase system and appropriate agents therefor” (Arpida AG,, priority 1997, dated 1998):
pIC50: −log10 of the molar value. Values after ≈ are worked out from the molar mass of the structure shown. Read-outs that look alike come from different tables or passages of the source. No end group written: not given here.

Tests used:
E. coli K-12 UT580 [1] = assay: microbe, parasite or virus in culture; settings: Escherichia coli, K12UT580, 24 h, read-out: growth inhibition MIC
Description: Growth inhibition assay. An over night culture of E. coli K-12 UT580 grown in LB-medium was diluted 1:30 into soft agar (0.7% agarose in LB broth) at 40°C, and 3 ml of the diluted cell suspension were spread an LB agar plates. Filter discs (4.4 mm diameter) were placed in regular intervals on the solidified top agar. To each filter was added 10 µl of one of the different peptide stock solutions (20 µM to 80 µM). The agar plates were incubated over night at 37°C. The area of the clear zone around each filter disc was determined. The clear area is taken as a measure for the growth inhibitory activity of the peptide.
Growth inhibition of E. coli K12 UT580. Peptides were added to filter discs and placed onto a cell culture in LB soft agar. The clear zones are indicative of growth inhibition (panel A).

enzyme I = target: T1, enzyme I (Escherichia coli, UniProt P08839); assay: biochemical; set-up: species or system E. coli
T1 construct: 3 µM each of purified HPr and enzyme I (Mao et al., 1995); made in house
From the text: Fig. 2. Assays for the screening, selection and characterization of inhibitory compounds from combinatorial libraries. Reaction products that can be determined experimentally are boxed. The inhibitory compound X can be in soluble form, immobilized on a filamentous phage, or bound to a microtiter well. The transporter for GlcNAc (shaded in grey) contains the IIA, IIB and IIC functional units as domains of a single polypeptide chain. • (a) Binding of Enzyme I to immobilized ligands, e.g. filamentous phages from a phage display library or synthetic peptides from a combinatorial peptide library was detected using [^1251]-Enzyme I and autoradiography. • (b) Phosphorylation by Enzyme I. To identify peptides and filamentous phages displaying a peptide which can be phosphorylated by Enzyme 1, support based peptide libraries and immobilized peptide-displaying phages were incubated over night with enzyme I in the presence of [^32P]phosphoenolpyruvate, and the phosphorylated species were detected with a PhosphorImager. […] A conventional and well established assay to colorimetrically detect the formation of inorganic phosphate has been adapted to the specific needs. The assay can be performed in microtiter plates and quantitated with a microplate photoreader. Another assay to monitor phosphatase activity of soluble compounds is based on the detection of pyruvate which is continuously produced from phosphoenolpyruvate whenever enzyme I is dephosphorylated. The enzyme I-specific phosphatase activity of soluble compounds can be detected from the pyruvate burst. The rate of pyruvate formation is monitored with lactate dehydrogenase and NADH. The assay can be performed in microtiter plates and quantitated with a microplate photoreader. • (d) Inhibition of in vitro PTS activity. The inhibitory activity of soluble compounds can be measured quantitatively in the sugar phosphotransferase assay in the presence of the purified PTS proteins and with [^14C]GlcNAc ([^14C]N-acetyl-glucosamine) or (14C] Glc ([^14C]glucose) as terminal phosphate acceptor (Emi et al., 1982). • (e) Inhibition of PTS activity in bacteria. Compounds that specifically interfere with the PTS can also be detected in bacteria. Indicator E. coli (or any other bacteria) will be plated an two defined minimal salts media containing either glucose or a nonPTS Substrate e.g. lactose as the only carbon source. Compounds from chemical libraries are applied to both cultures.
Inhibition of phosphotransferase activity by soluble peptides. This assay measures the inhibition of enzyme I dependent sugar phosphorylation activity. […] The purified N-acetylglucosamine transporter (II^GlcNAc) of E.coli (Mukhija and Erni, 1996) was used as the sugar specific component. The reaction mixture contained per 100 µl, 100 µg phosphatidyl glycerol from egg yolk (Sigma), 50 mM KPi, pH 7.5, 2.5 mM dithiothreitol, 2.5 mM NaF, 5 mM MgCl2, […] (potassium salt, Sigma), 0.5 mM [U-^14C]GlcNAc (New England Nuclear; 56.3 mCi/mmol, diluted to 1000 cpm/nmol), and 3 µM each of purified HPr and enzyme I (Mao et al., 1995). The reaction was started by addition of 0.1 µg of II^GlcNAc. After incubation for 30 min at 37°C, the reaction was stopped by adding 1 ml ice-cold water. GlcNAc-6-Phosphate was separated from free GlcNAc by anion-exchange chromatography on AG-1-X2 (50-100 mesh, Biorad). Activity is expressed as nmoles of sugar-P formed after 30 min. The HPr concentration was adjusted such that it was rate limiting in the overall phosphotransferase reaction. The inhibitory peptides were added to concentrations of 25 µM to 10 mM. Phosphorylation of GlcNAc in the absences of peptide was taken as 100%.

E. coli K-12 UT580 [2] = assay: Growth inhibition assay (filter discs on LB soft agar); assay type: cell-based; settings: E. coli K-12 UT580, LB agar, over night at 37°C
From the text: Fig. 4. Growth inhibition of E. coli K12 UT580. […]

[3] = peptides identified by phage display, 30 min at 37°C, HPr rate limiting, read-out: inhibition IC50
[4] = peptides from support-based combinatorial libraries, 30 min at 37°C, HPr rate limiting, read-out: inhibition IC50

Compound	pIC50 (enzyme I; [3])	also measured
CN(C)[C@@H]1C(O)=C(C(N)=O)C(=O)[C@@]2(O)C(O)=C3C(=O)c4c(O)cccc4[C@@](C)(O)[C@H]3C[C@@H]12 [tetracycline]		MIC (E. coli K-12 UT580 [1]): 2.5 µM (≈ 1.11 µg/mL)
Ac-DGARLHYLF [compound 23]	2.12	
DGARLHYLF [compound 22]	2.92	
GLRFGKTRVHYLVLG [compound 14]	4.60	
KGWHKRKK [compound 6]		pIC50 (enzyme I; [4]): 3.28
KISRHGKRGK [compound 18]	3.85	
KISRHGRPTG [compound 19]	2.97	
KKFALRK [compound 2, KKFALRK]		inhibition IC50 (enzyme I; peptides from support-based combinatorial libraries, 30 min at 37°C, HPr rate limiting): none
KKFDLRK [compound 3, KKFDLRK]		pIC50 (enzyme I; [4]): 3.09
KKFHIRKR [compound 9]		pIC50 (enzyme I; [4]): 3.80
KKFHLRK [peptide 1, KKFHLRK]		growth inhibition MIC (E. coli K-12 UT580 [2]): 125.8 µM; pIC50 (enzyme I): 3.82
KKWHKRKK [compound 8]		pIC50 (enzyme I; [4]): 3.36
KKWHLRKR [compound 5]		growth inhibition MIC (E. coli K-12 UT580 [2]): 63.0 µM; pIC50 (enzyme I; [4]): 4.52
KKWHRRKK [compound 7]		pIC50 (enzyme I; [4]): 3.52
KMSRHRKPGA [compound 16]	4.00	
MSRHRN [compound 29, MSRHRN]	3.12	
RHITLF [compound 28, RHITLF]	2.86	
RHITSL [compound 27, RHITSL]	3.19	
RHRTLF [compound 25, RHRTLF]	3.39	
RHWSIF [compound 24, RHWSIF]	3.40	
RHYLLF [compound 26, RHYLLF]	3.30	
RIHFIPRRGR [compound 20]	3.55	
RLHYLF [compound 21, RLHYLF]	3.43	
SGRKSTRVHHWLLVL [compound 15]	4.22	
